Data as given in publication PMC4310329, “The length of a lantibiotic hinge region has profound influence on antimicrobial activity and host specificity” (Frontiers in Microbiology, 2015).

Key:
[1] = system: Bacillus cereus (L′29) 16; assay: MIC in liquid culture; type: cell-based; conditions: MIC value of nisin divided by that of the analog
Protocol: (§1) L. lactis strains were cultured in M17 broth supplemented with 0.5% (w/v) glucose (GM17) or GM17 agar for genetic manipulation or in minimal expression medium (MEM) for protein expression at 30°C (Rink et al., [2005]). E. faecalis, S. aureus, S. pneumonia, and L. monocytogenes were grown in GM17 at 37°C or GM17 agar at different temperatures for agar diffusion assay. M. luteus was grown in Luria-Bertani broth shaken (200 rpm) at 30°C or LB agar at 20°C for agar diffusion assay. Bacillus strains were cultured in Brain Heart Infusion (BHI) shaken (200 rpm) or BHI agar at different temperatures for agar diffusion assay.
(§2) The indicator strains were cultured until OD (600 nm) reached 0.5. Before MIC value test, the culture was diluted 1000 times to make the concentration of cells around 5 × 10^5 per milliliter. The test was performed using a temperature controlled plate reader [Tecan200 (Tecan Group AG)] and 96 well plate (Greiner Bio-one). 180 μl indicator strain culture mixed with 20 μl hinge region analogs with final concentration from 0.031 μg/ml–32 μg/ml was incubated at 30°C or 37°C for 18 h. OD (600 nm) was checked every 30 min. For aerobic strains, 2 min of shaking was performed before every check. The concentration of peptide without observed growth of indicator strains was considered as the MIC value.

Bacillus cereus 4147 = assay: MIC in liquid culture; type: cell-based; conditions: MIC value of nisin divided by that of the analog
Protocol: as §1, §2

Bacillus cereus 4153 = assay: MIC in liquid culture; type: cell-based; conditions: MIC value of nisin divided by that of the analog
Protocol: as §1, §2

[2] = system: Enterococcus faecalis VE14089; assay: MIC in liquid culture; type: cell-based; conditions: MIC value of nisin divided by that of the analog
Protocol: as §1, §2

[3] = system: Lactococcus lactis MG1363; assay: MIC in liquid culture; type: cell-based; conditions: MIC value of nisin divided by that of the analog
Protocol: as §1, §2

Listeria monocytogenes = assay: MIC in liquid culture; type: cell-based; conditions: MIC value of nisin divided by that of the analog
Protocol: as §1, §2

Micrococcus luteus = assay: MIC in liquid culture; type: cell-based; conditions: MIC value of nisin divided by that of the analog
Protocol: as §1, §2

Staphylococcus aureus = assay: MIC in liquid culture; type: cell-based; conditions: MIC value of nisin divided by that of the analog
Protocol: as §1, §2

[4] = system: Streptococcus pneumoniae R6; assay: MIC in liquid culture; type: cell-based; conditions: MIC value of nisin divided by that of the analog
Protocol: as §1, §2

L. lactis MG1363 = assay: Agar well diffusion assay; type: cell-based, Lactococcus lactis; conditions: relative to wt
Protocol: as §1
(§3) For the agar well diffusion assay, the same cultures as in the MIC value test were used and diluted 200 times with solid media. Identical sizes of wells (7.5 mm diameter) were made and 2 μg of hinge region analogs dissolved in 20 μl 0.05% acetic acid were added. The plates were incubated at different temperatures for at least 1 day until apparent halos appeared. For activity test at low temperature, the indicators were diluted in the same way but poured into smaller plates (52 mm diameter). The plates were incubated at 4°C overnight before the peptides were added. B. sporothermodurans IC4 and B. cereus 4153 were first incubated with the peptides at 4°C for 2 weeks then moved to 30°C and incubated overnight. The diameters of the halos were measured.
(§4) The antimicrobial activity of the hinge region analogs in solid media were tested by an agar well diffusion assay. The diameters of the halos were measured and the residual activity of the analogs were estimated according to the formula of the relationship between the concentration of nisin and the sizes of halos. We made use of the fact that the size of the halo is directly related to the log of nisin concentration. Of course this is an estimate of activity of the variants because any changes in diffusion of the variant bacteriocin or growth rates of indicator bacteria during the assay could also affect the size of the halo. (Table 5 and Supplementary Figure 1). The plates were shown in supplementary data (Supplementary Figures 2–8). […] And against L. lactis at 20°C, the inhibition zone was larger than nisin. […] The M. luteus grows quite fast at room temperature and only the +2 variant retained 55% of the activity of nisin. […]
(§5) To evaluate the activity of nisin on the agar plate, an agar well diffusion assay with gradient of nisin against Lactococcus lactis ( with two plasmids) was performed ( Supplementary Figur e 1 A). The diameter of the halos were measured (Supplementary Figure 1B). […]
(§6) the concentration of nisin is in liner relationship with diameter of the halos ( Supplementary Fi g u re 1C). According to the formula (1) , the relative activity of the peptides compared to nisin can be calculated b y the formula ( 2) .
(§7) Supplementary Figure 1. Relationship between concentration of nisin and diameter of the halos. (A) Agar well diffusion assay. Gradient concentration of nisin were made and dissolved in 30µl 0.05% acetic acid. Lactococcus lactis ( with two plasmids) was cultured overnight and diluted 250 times with GM17 agar before added to the plate. The final concentration of the cells was about 2×10^6 cells/milliliter. The plate was incubated for 1 da y. Concentrations of nisin were labeled. (B) log10 of the concentrati ons and diameters of the halo. (C) A linear curve w as made betw een t he diameters of the halo and log10s of the concentration of nisin.
(§8) (1 picture or pasted object on this page, not shown here)
(§9) Last Name a uthor 1 et al. Running Title
(§10) C = concentration of nisin d° = diameter of the halo of wild t ype […]

L. monocytogenes = assay: Agar well diffusion assay; type: cell-based, Listeria monocytogenes; conditions: estimated from halo diameter by nisin standard curve, relative to wt
Protocol: as §1, §3, §4, §5, §6, §7, §8, §9, §10

E. faecalis VE14089 = assay: Agar well diffusion assay; type: cell-based, Enterococcus faecalis; conditions: estimated from halo diameter by nisin standard curve, relative to wt
Protocol: as §1, §3, §4, §5, §6, §7, §8, §9, §10

M. luteus = assay: Agar well diffusion assay; type: cell-based, Micrococcus luteus; conditions: 20 °C; estimated from halo diameter by nisin standard curve, relative to wt
Protocol: as §1, §3, §4, §5, §6
as §7, with “nisin. […]” for “nisin.”

S. aureus = assay: Agar well diffusion assay; type: cell-based, Staphylococcus aureus; conditions: 20 °C; estimated from halo diameter by nisin standard curve, relative to wt
Protocol: as §1, §3, §4, §5, §6
as §7, with “nisin. […]” for “nisin.”

B. sporothermodurans IC4 = assay: Agar well diffusion assay; type: cell-based, Bacillus sporothermodurans; conditions: 30 °C; estimated from halo diameter by nisin standard curve, relative to wt
Protocol: as §1
as §3, with “B. sporothermodurans IC4 and B. cereus 4153 were first incubated with the peptides at 4°C for 2 weeks then moved to 30°C and incubated overnight.” left out
The antimicrobial activity of the hinge region analogs in solid media were tested by an agar well diffusion assay. The diameters of the halos were measured and the residual activity of the analogs were estimated according to the formula of the relationship between the concentration of nisin and the sizes of halos. […]
as §5
the concentration of nisin is in liner relationship with diameter of the halos ( Supplementary Fi g u re 1C). According to the formula (1) , the relative activity of the peptides compared to nisin can be calculated b y the formula ( 2) . […]

Bacillus cereus = assay: Agar well diffusion assay against Bacillus strains (Supplementary Figure 8); type: cell-based; conditions: 30°C for 18 hours, BHI agar, 5 µg nisin or +2 analogue in 50 µl 0.05% acetic acid
Protocol: The antimicrobial activity of the hinge region analogs in solid media were tested by an agar well diffusion assay. The diameters of the halos were measured and the residual activity of the analogs were estimated according to the formula of the relationship between the concentration of nisin and the sizes of halos. We made use of the fact that the size of the halo is directly related to the log of nisin concentration. Of course this is an estimate of activity of the variants because any changes in diffusion of the variant bacteriocin or growth rates of indicator bacteria during the assay could also affect the size of the halo. (Table 5 and Supplementary Figure 1). The plates were shown in supplementary data (Supplementary Figures 2–8). […] And against L. lactis at 20°C, the inhibition zone was larger than nisin. […] The M. luteus grows quite fast at room temperature and only the +2 variant retained 55% of the activity of nisin.
Supplementary Figure 7.Agar well diffusion assays of hinge region analogues against Bacillus sporotherm odurans IC4 . 2 µg of peptides w ere added per w ell. The plates were incub ated at 30 ° C […]
Supplementary Figure 8.Agar well diffusion assays of hinge region analogues against 4 kinds of Bacillus strains . 5µl overnight culture was mixed with 5ml BHI agar and poured into the plate. […]

[5] = system: Bacillus sporothermodurans IC4; assay: MIC in liquid culture; type: cell-based; conditions: MIC value of nisin divided by that of the analog
Protocol: as §1, §2

[6] = 20 °C, estimated from halo diameter by nisin standard curve (halo diameter vs log of nisin concentration)
[7] = 30 °C, estimated from halo diameter by nisin standard curve

Row | Compound | Residual activity of variants compared to nisin [1] [%] | Residual activity of variants compared to nisin (Bacillus cereus 4147) [%] | Residual activity of variants compared to nisin (Bacillus cereus 4153) [%] | Residual activity of variants compared to nisin [2] [%] | Residual activity of variants compared to nisin [3] [%] | Residual activity of variants compared to nisin (Listeria monocytogenes) [%] | Residual activity of variants compared to nisin (Micrococcus luteus) [%] | Residual activity of variants compared to nisin (Staphylococcus aureus) [%] | Residual activity of variants compared to nisin [4] [%] | Residual activity (L. lactis MG1363; [6]) [%] | Residual activity (L. lactis MG1363; [7]) [%] | Residual activity (L. monocytogenes; 20 °C) [%] | Residual activity (L. monocytogenes; 30 °C) [%] | Residual activity (E. faecalis VE14089; 20 °C) [%] | Residual activity (E. faecalis VE14089; 30 °C) [%] | Residual activity (E. faecalis VE14089; 37 °C) [%] | Residual activity (M. luteus) [%] | Residual activity (S. aureus) [%] | Residual activity (B. sporothermodurans IC4) [%] | also measured
1 | C=C(NC(=O)[C@@H](NC(=O)[C@H](Cc1c[nH]cn1)NC(=O)[C@@H](NC(=O)[C@H](CO)NC(=O)[C@@H]1CS[C@@H](C)[C@H]2NC(=O)[C@H](C)NC(=O)[C@H](NC(=O)[C@H](CCCCN)NC(=O)[C@H](CCSC)NC(=O)[C@@H](NC(=O)[C@@H](NC(=O)[C@H](CC(N)=O)NC(=O)[C@@H]3CS[C@@H](C)[C@@H](NC(=O)[C@H](CCCCN)NC(=O)[C@@H]4CS[C@@H](C)[C@@H](NC(=O)[C@@H]5CSC[C@@H](NC(=O)/C(=C/C)NC(=O)[C@@H](N)[C@@H](C)CC)C(=O)N[C@@H]([C@@H](C)CC)C(=O)NC(=C)C(=O)N[C@@H](CC(C)C)C(=O)N5)C(=O)N5CCC[C@H]5C(=O)NCC(=O)N4)C(=O)NCC(=O)N[C@@H](C)C(=O)N[C@@H](CC(C)C)C(=O)N[C@@H](CCSC)C(=O)NCC(=O)N3)[C@@H](C)CC)C(C)C)[C@H](C)SC[C@H](NC2=O)C(=O)N[C@@H](Cc2c[nH]cn2)C(=O)N1)[C@@H](C)CC)C(C)C)C(=O)N[C@@H](CCCCN)C(=O)O [+2] | 25 | 50 | 50 | 30 | 25 | 50 | 25 | <6 | 25 | 140 | 114 | 139 | 114 | 144 | 88 | 101 | 55 | 22 | 236 | plate activity compared to nisin (Bacillus cereus): either equal or higher plate activity than nisin
2 | C=C(NC(=O)[C@@H](NC(=O)[C@H](Cc1c[nH]cn1)NC(=O)[C@@H](NC(=O)[C@H](CO)NC(=O)[C@@H]1CS[C@@H](C)[C@H]2NC(=O)[C@H](C)NC(=O)[C@H](NC(=O)[C@H](CCCCN)NC(=O)[C@H](CC(N)=O)NC(=O)[C@@H]3CS[C@@H](C)[C@@H](NC(=O)[C@H](CCCCN)NC(=O)[C@@H]4CS[C@@H](C)[C@@H](NC(=O)[C@@H]5CSC[C@@H](NC(=O)/C(=C/C)NC(=O)[C@@H](N)[C@@H](C)CC)C(=O)N[C@@H]([C@@H](C)CC)C(=O)NC(=C)C(=O)N[C@@H](CC(C)C)C(=O)N5)C(=O)N5CCC[C@H]5C(=O)NCC(=O)N4)C(=O)NCC(=O)N[C@@H](C)C(=O)N[C@@H](CC(C)C)C(=O)N[C@@H](CCSC)C(=O)NCC(=O)N3)[C@H](C)SC[C@H](NC2=O)C(=O)N[C@@H](Cc2c[nH]cn2)C(=O)N1)[C@@H](C)CC)C(C)C)C(=O)N[C@@H](CCCCN)C(=O)O [−1] | <13 | <13 | <13 | <6 | 3 | <25 | <25 | 3 | 25 | 33 | 17 | 19 | 29 | 21 | 72 | 140 | 0 | 16 | 522 | Residual activity of variants compared to nisin [5]: 50%
